For the experiment, the target named is PAK1 (Homo sapiens, UniProt Q13153). Description: Z'-LYTE kinase assay, Ser/Thr […] peptide. It counts as biochemical.

pIC50: −log10 of the molar value.

PAK1, sequence (Q13153 2-545): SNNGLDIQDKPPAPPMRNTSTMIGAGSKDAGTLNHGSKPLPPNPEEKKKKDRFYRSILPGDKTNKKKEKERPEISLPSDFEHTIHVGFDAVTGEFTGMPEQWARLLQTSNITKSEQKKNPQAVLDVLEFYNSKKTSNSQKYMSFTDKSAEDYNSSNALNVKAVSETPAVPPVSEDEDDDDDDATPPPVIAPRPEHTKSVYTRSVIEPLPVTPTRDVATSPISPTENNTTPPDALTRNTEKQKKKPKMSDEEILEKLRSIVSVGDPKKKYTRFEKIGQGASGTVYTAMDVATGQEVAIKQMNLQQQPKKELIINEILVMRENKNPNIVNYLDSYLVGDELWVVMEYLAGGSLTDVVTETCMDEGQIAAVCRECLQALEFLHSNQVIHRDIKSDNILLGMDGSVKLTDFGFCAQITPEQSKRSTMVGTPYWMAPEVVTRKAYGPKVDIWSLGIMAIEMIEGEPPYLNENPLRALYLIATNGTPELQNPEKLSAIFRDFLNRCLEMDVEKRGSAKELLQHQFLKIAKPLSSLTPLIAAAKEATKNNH

Turning to `Cc1ccc2[nH]c(=O)c3cc(C(=O)NCCCN(C)Cc4ccccc4)sc3c2c1` [CP734, N-[3-(benzyl-methylamino)propyl]-8-methyl-4-oxo-5H-thieno[4,5-c]quinoline-2-carboxamide], the pIC50 (as a rule, −log10 of the IC50, conventionally taken in molar units) is 4.82.
